± gives the expanded uncertainty stated by the source.
Tests used:
[1] = cn = amount concentration of the nth substance listed, in mol/dm3; details: 101 kPa, Liquid
[2] = specific heat capacity at constant pressure; cn = amount concentration of the nth substance listed, in mol/dm3; details: 101 kPa, Liquid, heat flux microcalorimetry

[Cl-].c1ccc([P+](c2ccccc2)(c2ccccc2)c2ccccc2)cc1 [tetraphenylphosphonium chloride] + CO
Details | mass density, c1 = 0.005 [kg/m3] | mass density, c1 = 0.01 [kg/m3] | mass density, c1 = 0.02 [kg/m3] | mass density, c1 = 0.05 [kg/m3] | mass density, c1 = 0.1 [kg/m3] | specific heat capacity, c1 = 0.005 [J/K/kg] | specific heat capacity, c1 = 0.01 [J/K/kg] | specific heat capacity, c1 = 0.02 [J/K/kg] | specific heat capacity, c1 = 0.05 [J/K/kg] | specific heat capacity, c1 = 0.1 [J/K/kg]
[1], 308.65 K | 776.52 ± 1.9 | 779.51 ± 1.9 | 780.37 ± 1.9 | 787.22 ± 1.9 | 793.29 ± 1.8 | – | – | – | – | –
[1], 311.65 K | 774.51 ± 1.9 | 778.81 ± 1.9 | 777.85 ± 1.9 | 784.14 ± 1.9 | 790.42 ± 1.9 | – | – | – | – | –
[1], 314.65 K | 771.62 ± 1.9 | 775.7 ± 1.9 | 774.95 ± 1.9 | 782.06 ± 1.9 | 788.49 ± 1.9 | – | – | – | – | –
[2], 308.65 K | – | – | – | – | – | 2543.2 ± 51 | 2548.5 ± 51 | 2556.9 ± 51 | 2605.5 ± 52 | 2660.8 ± 53
[2], 311.65 K | – | – | – | – | – | 2564.1 ± 51 | 2565.8 ± 51 | 2582.9 ± 52 | 2628.9 ± 53 | 2691.7 ± 54
[2], 314.65 K | – | – | – | – | – | 2570.9 ± 51 | 2605.9 ± 52 | 2599.5 ± 52 | 2637.3 ± 53 | 2721.3 ± 54

[Cl-].c1ccc([P+](c2ccccc2)(c2ccccc2)c2ccccc2)cc1 [tetraphenylphosphonium chloride] + O
Details | mass density, c1 = 0.005 [kg/m3] | mass density, c1 = 0.01 [kg/m3] | mass density, c1 = 0.02 [kg/m3] | mass density, c1 = 0.05 [kg/m3] | mass density, c1 = 0.1 [kg/m3] | specific heat capacity, c1 = 0.005 [J/K/kg] | specific heat capacity, c1 = 0.01 [J/K/kg] | specific heat capacity, c1 = 0.02 [J/K/kg] | specific heat capacity, c1 = 0.05 [J/K/kg] | specific heat capacity, c1 = 0.1 [J/K/kg]
[1], 308.65 K | 994.05 ± 0.54 | 995.67 ± 0.53 | 998.12 ± 0.52 | 996.84 ± 0.53 | 1001.06 ± 0.52 | – | – | – | – | –
[1], 311.65 K | 993.46 ± 0.54 | 994.88 ± 0.54 | 996.99 ± 0.52 | 995.58 ± 0.53 | 997.28 ± 0.53 | – | – | – | – | –
[1], 314.65 K | 991.77 ± 0.56 | 992.33 ± 0.55 | 995.43 ± 0.53 | 994.11 ± 0.54 | 995.93 ± 0.53 | – | – | – | – | –
[2], 308.65 K | – | – | – | – | – | 4202.5 ± 84 | 4203.6 ± 84 | 4207 ± 84 | 4217.3 ± 84 | 4229.9 ± 85
[2], 311.65 K | – | – | – | – | – | 4203.6 ± 84 | 4206.5 ± 84 | 4209.8 ± 84 | 4218.4 ± 84 | 4241.9 ± 85
[2], 314.65 K | – | – | – | – | – | 4203.8 ± 84 | 4208.4 ± 84 | 4211.1 ± 84 | 4219.7 ± 84 | 4244.7 ± 85

O [water] + [Cl-].c1ccc([P+](c2ccccc2)(c2ccccc2)c2ccccc2)cc1
c2 = 0
Details | mass density, 311.65 K [kg/m3] | mass density, 314.65 K [kg/m3] | specific heat capacity, 308.65 K [J/K/kg] | specific heat capacity, 311.65 K [J/K/kg] | specific heat capacity, 314.65 K [J/K/kg]
[1] | 993.13 ± 0.55 | 991.68 ± 0.56 | – | – | –
[2] | – | – | 4182 ± 84 | 4182.2 ± 84 | 4182.4 ± 84
